Calls of active or inactive are those of the source. The calls are words filed in the database; no cut-off is given here.
Test system: not listed separately
Test: Activation of ERK pathway in human FaDu cells assessed as effect on p38 phosphorylation upto 3 uM measured after 24 hrs by Western blotting analysis
Format: cell-based
Settings: not given

SMILES | Activity
Cc1nn(C)c2cc(NCc3ccc(Br)cc3)ccc12 | inactive

Test system: FaDu
Test: Induction of apoptosis in human FaDu cells assessed as nuclear fragmentation upto 3 uM measured after 24 hrs by DAPI staining based fluorescence microscopic analysis
Format: functional, cell-based
Settings: not given

SMILES | Activity
Cc1nn(C)c2cc(NCc3ccc(Br)cc3)ccc12 | Active

Test system: FaDu
Test: Downregulation of MMP9 expression in human FaDu cells at 1 to 3 uM incubated for 24 hrs by Western blot analysis
Format: functional, cell-based
Settings: dose 1-3 µM

SMILES | Activity
Cc1nn(C)c2cc(NCc3ccc(Br)cc3)ccc12 | Active

Test system: not listed separately
Test: Cytotoxicity against human DPSC cells assessed as reduction of cell viability at 20 uM measured after 24 hrs by MTT assay
Format: toxicity, cell-based
Settings: not given

SMILES | Activity
COc1ccc(CNc2ccc3c(C)nn(C)c3c2)cc1 | 91.62%
Cc1nn(C)c2cc(NCc3ccc(N(C)C)cc3)ccc12 | 91.6%
COc1ccc(CNc2ccc3c(C)nn(C)c3c2)c(O)c1 | 84.9%
Cc1nn(C)c2cc(NCc3ccc(F)c(F)c3)ccc12 | 90.4%
Cc1nn(C)c2cc(NCc3ccc([N+](=O)[O-])cc3)ccc12 | 100.99%
Cc1nn(C)c2cc(NCc3ccc(Cl)cc3)ccc12 | 84.13%
Cc1nn(C)c2cc(NCc3ccc(O)cc3)ccc12 | 94.7%
Cc1nn(C)c2cc(NCc3ccc(Br)cc3)ccc12 | 94.66%
COc1cc(CNc2ccc3c(C)nn(C)c3c2)cc(OC)c1OC | 82.54%
COc1ccc(CNc2ccc3c(C)nn(C)c3c2)cc1O | 86.87%
COc1ccc(CNc2ccc3c(C)nn(C)c3c2)c(OC)c1OC | 90.13%
Cc1nn(C)c2cc(NCc3ccncc3)ccc12 | 82.84%

Biological target: T1, Indoleamine 2,3-dioxygenase 1 (Homo sapiens, UniProt P14902)
Test: Inhibition of human IDO1 expressed in human FaDu cells at 2.78 uM incubated for 24 hrs by ELISA assay relative to control
Format: cell-based
Settings: not given
Target sequence in this assay (P14902 whole entry, looked up): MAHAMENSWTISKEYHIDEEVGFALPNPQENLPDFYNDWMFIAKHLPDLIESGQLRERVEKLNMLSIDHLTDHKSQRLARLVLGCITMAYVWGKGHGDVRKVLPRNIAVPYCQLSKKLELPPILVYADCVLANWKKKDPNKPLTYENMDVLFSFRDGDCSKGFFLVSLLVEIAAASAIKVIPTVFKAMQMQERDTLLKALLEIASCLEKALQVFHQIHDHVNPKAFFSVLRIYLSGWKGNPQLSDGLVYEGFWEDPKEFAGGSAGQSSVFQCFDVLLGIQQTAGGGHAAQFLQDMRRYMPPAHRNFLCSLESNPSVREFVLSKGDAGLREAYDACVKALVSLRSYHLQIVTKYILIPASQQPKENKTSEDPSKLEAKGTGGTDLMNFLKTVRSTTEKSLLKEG

inhibition | SMILES
45.7% | Cc1nn(C)c2cc(NCc3ccc(Br)cc3)ccc12

Test system: FaDu
Test: Inhibition of cell migration in human FaDu cells measured after 24 hrs by wound healing assay
Format: functional, cell-based
Settings: dose 1-3 µM

SMILES | inhibition
Cc1nn(C)c2cc(NCc3ccc(Br)cc3)ccc12 | Dose-Dependent Effect

Biological target: T1, Indoleamine 2,3-dioxygenase 1
Test: Inhibition of human IDO1 expressed in human FaDu cells incubated for 24 hrs by Western blotting analysis
Format: cell-based
Settings: not given
Target sequence in this assay (P14902 whole entry, looked up): as above

inhibition | SMILES
Dose-Dependent Effect | Cc1nn(C)c2cc(NCc3ccc(Br)cc3)ccc12

Test system: not listed separately
Test: Cytotoxicity against human YD-15 cells assessed as reduction of cell viability at 50 uM measured after 24 hrs by MTT assay
Format: functional
Settings: not given

SMILES | Activity
COc1ccc(CNc2ccc3c(C)nn(C)c3c2)cc1 | 67.1%
Cc1nn(C)c2cc(NCc3ccc(N(C)C)cc3)ccc12 | 26.86%
COc1ccc(CNc2ccc3c(C)nn(C)c3c2)c(O)c1 | 102.06%
Cc1nn(C)c2cc(NCc3ccc(F)c(F)c3)ccc12 | 63.3%
Cc1nn(C)c2cc(NCc3ccc([N+](=O)[O-])cc3)ccc12 | 94.88%
Cc1nn(C)c2cc(NCc3ccc(Cl)cc3)ccc12 | 52.82%
Cc1nn(C)c2cc(NCc3ccc(O)cc3)ccc12 | 98.59%
Cc1nn(C)c2cc(NCc3ccc(Br)cc3)ccc12 | 7.87%
COc1cc(CNc2ccc3c(C)nn(C)c3c2)cc(OC)c1OC | 86.71%
COc1ccc(CNc2ccc3c(C)nn(C)c3c2)cc1O | 99.01%
COc1ccc(CNc2ccc3c(C)nn(C)c3c2)c(OC)c1OC | 101.41%
Cc1nn(C)c2cc(NCc3ccncc3)ccc12 | 97.98%

Test system: not listed separately
Test: Activation of ERK pathway in human FaDu cells assessed as increase in ERK phosphorylation upto 3 uM measured after 24 hrs by Western blotting analysis
Format: cell-based
Settings: filed as activator

SMILES | Activity
Cc1nn(C)c2cc(NCc3ccc(Br)cc3)ccc12 | Active

Test system: not listed separately
Test: Activation of ERK pathway in human FaDu cells assessed as decrease in JNK phosphorylation upto 3 uM measured after 24 hrs by Western blotting analysis
Format: cell-based
Settings: filed as activator

SMILES | Activity
Cc1nn(C)c2cc(NCc3ccc(Br)cc3)ccc12 | Active

Biological target: T1, Indoleamine 2,3-dioxygenase 1
Test: Inhibition of human IDO1 expressed in human FaDu cells at IC50 incubated for 24 hrs by ELISA assay
Format: cell-based
Settings: not given
Target sequence in this assay (P14902 whole entry, looked up): as above

IDO1 inhibition (qualitative) | SMILES
Active | COc1ccc(CNc2ccc3c(C)nn(C)c3c2)cc1
Active | Cc1nn(C)c2cc(NCc3ccc(F)c(F)c3)ccc12
Active | Cc1nn(C)c2cc(NCc3ccc([N+](=O)[O-])cc3)ccc12
Active | Cc1nn(C)c2cc(NCc3ccc(Cl)cc3)ccc12
Active | COc1ccc(CNc2ccc3c(C)nn(C)c3c2)cc1O
Active | COc1ccc(CNc2ccc3c(C)nn(C)c3c2)c(OC)c1OC

Test system: FaDu
Test: Cytotoxicity against human FaDu cells assessed as reduction of cell viability at 20 uM measured after 24 hrs by MTT assay
Format: functional
Settings: not given

SMILES | Activity
COc1ccc(CNc2ccc3c(C)nn(C)c3c2)cc1 | 10.4%
Cc1nn(C)c2cc(NCc3ccc(N(C)C)cc3)ccc12 | 93.5%
COc1ccc(CNc2ccc3c(C)nn(C)c3c2)c(O)c1 | 84.68%
Cc1nn(C)c2cc(NCc3ccc(F)c(F)c3)ccc12 | 8.08%
Cc1nn(C)c2cc(NCc3ccc([N+](=O)[O-])cc3)ccc12 | 7.77%
Cc1nn(C)c2cc(NCc3ccc(Cl)cc3)ccc12 | 8.43%
Cc1nn(C)c2cc(NCc3ccc(O)cc3)ccc12 | 87.72%
Cc1nn(C)c2cc(NCc3ccc(Br)cc3)ccc12 | 8.29%
COc1cc(CNc2ccc3c(C)nn(C)c3c2)cc(OC)c1OC | 49.4%
COc1ccc(CNc2ccc3c(C)nn(C)c3c2)cc1O | 7.26%
COc1ccc(CNc2ccc3c(C)nn(C)c3c2)c(OC)c1OC | 7.8%
Cc1nn(C)c2cc(NCc3ccncc3)ccc12 | 86.72%

Biological target: T1, Indoleamine 2,3-dioxygenase 1
Test: Inhibition of human recombinant IDO1 incubated for 1 hr by HPLC analysis
Settings: not given
Target sequence in this assay (P14902 whole entry): as the sequence (P14902 whole entry, looked up) above

IC50 | SMILES
0.72 µM | O=C(NNc1ccccc1)c1n[nH]c2cc(Br)ccc12

Test system: MCF7
Test: Cytotoxicity against human MCF7 cells assessed as reduction of cell viability at 25 uM measured after 24 hrs by MTT assay
Format: functional
Settings: not given

SMILES | Activity
COc1ccc(CNc2ccc3c(C)nn(C)c3c2)cc1 | 102.24%
Cc1nn(C)c2cc(NCc3ccc(N(C)C)cc3)ccc12 | 84.75%
COc1ccc(CNc2ccc3c(C)nn(C)c3c2)c(O)c1 | 88.27%
Cc1nn(C)c2cc(NCc3ccc(F)c(F)c3)ccc12 | 100.45%
Cc1nn(C)c2cc(NCc3ccc([N+](=O)[O-])cc3)ccc12 | 98.33%
Cc1nn(C)c2cc(NCc3ccc(Cl)cc3)ccc12 | 101.58%
Cc1nn(C)c2cc(NCc3ccc(O)cc3)ccc12 | 100.39%
Cc1nn(C)c2cc(NCc3ccc(Br)cc3)ccc12 | 102.61%
COc1cc(CNc2ccc3c(C)nn(C)c3c2)cc(OC)c1OC | 92.8%
COc1ccc(CNc2ccc3c(C)nn(C)c3c2)cc1O | 95.71%
COc1ccc(CNc2ccc3c(C)nn(C)c3c2)c(OC)c1OC | 104.07%
Cc1nn(C)c2cc(NCc3ccncc3)ccc12 | 93.76%

Test system: FaDu
Test: Induction of apoptosis in human FaDu cells assessed as nuclear condensation upto 3 uM measured after 24 hrs by DAPI staining based fluorescence microscopic analysis
Format: functional, cell-based
Settings: not given

SMILES | Activity
Cc1nn(C)c2cc(NCc3ccc(Br)cc3)ccc12 | Active

Test system: FaDu
Test: Cytotoxicity against human FaDu cells assessed as reduction of cell viability measured after 24 hrs by MTT assay
Format: functional, cell-based
Settings: not given

SMILES | IC50
COc1ccc(CNc2ccc3c(C)nn(C)c3c2)cc1 | 6.67 µM
Cc1nn(C)c2cc(NCc3ccc(N(C)C)cc3)ccc12 | > 50 µM
COc1ccc(CNc2ccc3c(C)nn(C)c3c2)c(O)c1 | > 50 µM
Cc1nn(C)c2cc(NCc3ccc(F)c(F)c3)ccc12 | 3.49 µM
Cc1nn(C)c2cc(NCc3ccc([N+](=O)[O-])cc3)ccc12 | 11.2 µM
Cc1nn(C)c2cc(NCc3ccc(Cl)cc3)ccc12 | 3.57 µM
Cc1nn(C)c2cc(NCc3ccc(O)cc3)ccc12 | > 50 µM
Cc1nn(C)c2cc(NCc3ccc(Br)cc3)ccc12 | 2.78 µM
COc1cc(CNc2ccc3c(C)nn(C)c3c2)cc(OC)c1OC | 19.9 µM
COc1ccc(CNc2ccc3c(C)nn(C)c3c2)cc1O | 6.19 µM
COc1ccc(CNc2ccc3c(C)nn(C)c3c2)c(OC)c1OC | 1.87 µM
Cc1nn(C)c2cc(NCc3ccncc3)ccc12 | > 50 µM

Test system: FaDu
Test: Induction of apoptosis in human FaDu cells assessed as activation of PARP level upto 3 uM measured after 24 hrs by Western blot analysis
Format: functional, cell-based
Settings: not given

SMILES | Activity
Cc1nn(C)c2cc(NCc3ccc(Br)cc3)ccc12 | Active

Test system: FaDu
Test: Induction of apoptosis in human FaDu cells assessed as activation of cleaved caspase 3 level upto 3 uM measured after 24 hrs by Western blot analysis
Format: functional, cell-based
Settings: not given

SMILES | Activity
Cc1nn(C)c2cc(NCc3ccc(Br)cc3)ccc12 | Active

From ChEMBL document CHEMBL5325464, “Design, synthesis and evaluation the bioactivities of novel 1,3-dimethyl-6-amino-1H-indazole derivatives as anticancer agents” (Bioorg Med Chem, 2023)
